Test results reported in publication PMC5220080, “Modulating Beta-Cardiac Myosin Function at the Molecular and Tissue Levels” (Frontiers in Physiology, 2017).

How the values were obtained:
[1] = molecular target: T1, human beta-cardiac myosin subfragment 1 (M2β-S1) (Homo sapiens, UniProt P12883); assay: stopped-flow mant fluorescence, release from acto-M2β-S1 on mixing with ATP (rate constant without pN-Bleb); assay type: binding; parameters: gene MYH7; subfragment 1, amino acids 1–843, N-terminal FLAG tag, C-terminal Avi tag; with actin; conditions: read-out: stopped-flow mant fluorescence, release from acto-M2β-S1 on mixing with ATP (rat)
T1 sequence (P12883 1-843): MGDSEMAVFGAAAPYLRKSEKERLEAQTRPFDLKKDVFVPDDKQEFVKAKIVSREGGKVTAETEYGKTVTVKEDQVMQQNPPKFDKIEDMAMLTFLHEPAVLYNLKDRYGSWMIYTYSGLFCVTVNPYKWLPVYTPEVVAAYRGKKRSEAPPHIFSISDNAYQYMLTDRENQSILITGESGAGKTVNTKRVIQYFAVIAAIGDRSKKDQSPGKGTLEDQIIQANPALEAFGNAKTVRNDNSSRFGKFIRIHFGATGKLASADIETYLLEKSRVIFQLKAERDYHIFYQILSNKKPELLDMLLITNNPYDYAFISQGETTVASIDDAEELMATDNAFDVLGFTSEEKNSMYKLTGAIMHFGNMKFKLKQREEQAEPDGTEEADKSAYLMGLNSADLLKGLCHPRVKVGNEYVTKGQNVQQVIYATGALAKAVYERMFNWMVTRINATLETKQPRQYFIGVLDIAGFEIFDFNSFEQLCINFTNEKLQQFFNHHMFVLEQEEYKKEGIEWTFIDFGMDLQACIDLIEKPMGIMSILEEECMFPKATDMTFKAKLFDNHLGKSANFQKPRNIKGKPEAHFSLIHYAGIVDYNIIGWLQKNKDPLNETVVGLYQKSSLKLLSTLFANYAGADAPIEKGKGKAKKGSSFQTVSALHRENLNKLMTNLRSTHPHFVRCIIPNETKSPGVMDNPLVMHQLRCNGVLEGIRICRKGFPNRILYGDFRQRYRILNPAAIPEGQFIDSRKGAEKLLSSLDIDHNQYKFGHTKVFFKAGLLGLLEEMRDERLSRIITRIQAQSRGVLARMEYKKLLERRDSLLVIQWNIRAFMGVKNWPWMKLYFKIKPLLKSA

[2] = molecular target: T2, skeletal muscle heavy meromyosin (Sk HMM); assay: actin-activated ATPase (NADH-linked assay); also in vitro motility (IC50 […]); assay type: biochemical
T2 construct: heavy meromyosin, prepared from rabbit psoas muscle (Results text says chicken)

[3] = molecular target: T1, human beta-cardiac myosin subfragment 1 (M2β-S1); assay: as above; assay type: biochemical; parameters: gene MYH7; subfragment 1, amino acids 1–843, N-terminal FLAG tag, C-terminal Avi tag

| SMILES | koff [1] | IC50 [2] | IC50 [3] |
| --- | --- | --- | --- |
| CNc1ccccc1C(=O)O[C@H]1C[C@H](n2cnc3c(N)ncnc32)O[C@@H]1COP(=O)(O)OP(=O)(O)O | 229 ± 6.5 s⁻¹ | – | – |
| Cc1ccc2c(c1)C(=O)[C@]1(O)CCN(c3ccc([N+](=O)[O-])cc3)C1=N2 [pN-Bleb, para-Nitroblebbistatin] | – | 0.43 ± 0.11 µM | 12.3 ± 1.8 µM |
